Data set [1] has as its system LS174T colon cancer cells. Description: LS174T cell proliferation assay. The class given is cell-based. The arrangement: effects on LS174T colon cancer cell proliferation (Table 3): unit not given here. As to conditions: for inhibition at 1 µM / inhibition at 10 µM / inhibition at 0.1 µM: Homo sapiens, LS174T. As to the method: Cell proliferation assay. LS174T cells were grown in RPMI medium (Mediatech) supplemented with 5% fetal bovine serum and 1% penicillin/streptomycin. For cell proliferation assays, 3×10^4 cells/well growing in 12-well plates were treated with DMSO or inhibitors. The cell numbers and viability were analyzed by Vi-Cell Cell Viability Analyzer after 4 days. The IC50 values were calculated with GraphPad Prim 5.

[2] abbreviates: Table 1, 1 μM, read-out: inhibition of proliferation (%) of colon cancer LS174T cells.
[3] abbreviates: Table 1, 10 μM, read-out: inhibition of proliferation (%) of colon cancer LS174T cells.
The mark [4] stands for this setting: Table 2, 100 nM, read-out: inhibition of cell proliferation (%) of colon cancer LS174T cells.
[5] abbreviates: Table 2, 1 μM, read-out: inhibition of cell proliferation (%) of colon cancer LS174T cells.
The mark [6] stands for this setting: Table 2, 10 μM, read-out: inhibition of cell proliferation (%) of colon cancer LS174T cells.
The mark [7] stands for this setting: 1 μM, read-out: inhibition of LS174T colon cancer cell proliferation.
Where [8] appears, read: read-out: inhibition of LS174T colon cancer cell proliferation.
Setting [9] is: read-out: inhibition of cell proliferation (%) of colon cancer LS174T cells.

SMILES strings stand for the structures. Structures can show the parent of a compound that is named as a salt. Where two headings read alike, the source gives them in different places.

The term melting point denotes the temperature, or range, at which the solid turns liquid. The molecule `CN1CCN(c2ncc(C#Cc3c(F)cccc3F)c3ccccc23)CC1` (as salt: hydrochloride) [Compound 5pp, 4-((2,6-Difluorophenyl)ethynyl)-1-(4-methylpiperazin-1-yl)isoquinoline] displayed a melting point of 70 to 72 °C.
`O=C1CCCCN1c1ccc(C#Cc2c(F)cccc2F)cc1` [Compound 4a, 1-(4-((2,6-Difluorophenyl)ethynyl)phenyl)piperidin-2-one]: the melting point was in the range of 148 to 150 °C. Further, in data set [1] (setting [2]), the inhibition at 1 µM turned out to be 6.4%. Further, in data set [1] (setting [3]), the inhibition at 10 µM is 68.1%.
In turn, `Fc1cccc(F)c1C#Cc1ccc(N2CCOCC2)cc1` [Compound 4b, 4-(4-((2,6-Difluorophenyl)ethynyl)phenyl)morpholine] registered a melting point of 144 to 145 °C. The inhibition at 1 µM in data set [1] (setting [2]) was 13%. The inhibition at 10 µM in data set [1] (setting [3]) turned out to be 32.1%.
Taken in the same sequence, the figures for `CN1CCN(c2ccc(C#Cc3c(F)cccc3F)cc2)CC1` [Compound 4c, 1-(4-((2,6-Difluorophenyl)ethynyl)phenyl)-4-methylpiperazine] were 126 to 128 °C, 19.9% and 99.6%.
As to `Fc1cccc(F)c1C#Cc1ccc(-n2cccc2)cc1` [Compound 4d, 1-(4-((2,6-Difluorophenyl)ethynyl)phenyl)-1H-pyrrole], the melting point is 122 to 124 °C. In addition, in data set [1] (100 nM), the “activity in a cell proliferation assay” value is recorded as “considerably diminished activity”. For the same molecule, the “activity in a cell proliferation assay” value in data set [1] (1 μM) is “comparable to 4-((2,6-difluorophenyl)ethynyl)-N,N-dimethylaniline (2)”. The inhibition at 0.1 µM in data set [1] (Table 1, 100 nM, read-out: inhibition of proliferation (%) of colon cancer LS174T cells) was 11%. The inhibition at 1 µM in data set [1] (setting [2]) was 77.5%. For the same molecule, in data set [1] (setting [3]), the inhibition at 10 µM amounted to 96.7%.
As to `Cc1ccc(C)n1-c1ccc(C#Cc2c(F)cccc2F)cc1` [Compound 4e, 1-(4-((2,6-Difluorophenyl)ethynyl)phenyl)-2,5-dimethyl-1H-pyrrole], the melting point fell in the range of 124 to 126 °C. Moreover, the inhibition at 1 µM in data set [1] (setting [2]) came out at 20.9%. Moreover, in data set [1] (setting [3]), the inhibition at 10 µM came out at 78.8%.
`CN(C)c1ccc(C#Cc2c(F)cccc2F)nc1` [Compound 5a, 6-((2,6-Difluorophenyl)ethynyl)-N,N-dimethylpyridin-3-amine] registered a melting point of 120 to 122 °C. Besides, the inhibition at 0.1 µM in data set [1] (setting [4]) amounted to 15.1 ± 7.4%. Moreover, the inhibition at 1 µM in data set [1] (setting [5]) came to 68.9 ± 1.3%. For the same molecule, the inhibition at 10 µM in data set [1] (setting [6]) came to 85.2 ± 3.8%.
For the molecule `Fc1cccc(F)c1C#Cc1ccc2nccc(Cl)c2c1` [Compound 5aa, 4-Chloro-6-((2,6-difluorophenyl)ethynyl)quinoline], the melting point lay within 120 to 122 °C. Also, the inhibition at 1 µM in data set [1] (setting [5]) amounted to 43.8 ± 10.8%. For the same molecule, the inhibition at 10 µM in data set [1] (setting [6]) is 89.7 ± 4.3%.
Turning to `CN(C)c1ccc(C#Cc2c(F)cccc2F)cn1` [Compound 5b, 5-((2,6-Difluorophenyl)ethynyl)-N,N-dimethylpyridin-2-amine], the melting point lay in the range of 110 to 112 °C. Moreover, the inhibition at 1 µM in data set [1] (setting [7]) is above 75%. The inhibition at 0.1 µM in data set [1] (setting [4]) was found to be 0%. In addition, the inhibition at 1 µM in data set [1] (setting [5]) worked out at 77.9 ± 7%. The inhibition at 10 µM in data set [1] (setting [6]) amounted to 83.6 ± 7.8%.
On to `Fc1cccc(F)c1C#Cc1ccc2c(Cl)ccnc2c1` [Compound 5bb, 4-Chloro-7-((2,6-difluorophenyl)ethynyl)quinoline], for which the melting point lay within 148 to 150 °C. In addition, the inhibition at 1 µM in data set [1] (setting [5]) came to 23.1 ± 8.3%. Besides, the inhibition at 10 µM in data set [1] (setting [6]) is 70.8 ± 4.8%.
For the molecule `Fc1cccc(F)c1C#Cc1ccc(-n2cccc2)nc1` [Compound 5c, 5-((2,6-Difluorophenyl)ethynyl)-2-(1H-pyrrol-1-yl)pyridine], the melting point lay in the range of 121 to 123 °C. For the same molecule, the inhibition at 1 µM in data set [1] (setting [8]) was above 75%. Besides, in data set [1] (setting [9]), the inhibition at 0.1 µM amounted to 0%, the inhibition at 1 µM came to 80.5 ± 6.6% and the inhibition at 10 µM stood at 95.3 ± 0.8%.
For `Nc1ccnc2ccc(C#Cc3c(F)cccc3F)cc12` [Compound 5cc, 6-((2,6-Difluorophenyl)ethynyl)quinolin-4-amine], the melting point was 220 to 222 °C. In addition, the inhibition at 0.1 µM in data set [1] (setting [4]) was determined as 0%. In data set [1] (setting [5]), the inhibition at 1 µM is 66.2 ± 3.1%. For the same molecule, in data set [1] (setting [6]), the inhibition at 10 µM came to 93.9 ± 0.4%.
Take `CN(C)c1cnc(C#Cc2c(F)cccc2F)cn1` [Compound 5d, 5-((2,6-Difluorophenyl)ethynyl)-N,N-dimethylpyrazin-2-amine]: the melting point lay within 137 to 138 °C. The inhibition at 1 µM in data set [1] (setting [5]) turned out to be 22.9 ± 9.8%. The inhibition at 10 µM in data set [1] (setting [6]) stood at 91.6 ± 3%.
On to `Nc1ccnc2cc(C#Cc3c(F)cccc3F)ccc12` [Compound 5dd, 7-((2,6-Difluorophenyl)ethynyl)quinolin-4-amine], for which the melting point fell in the range of 219 to 221 °C. In addition, in data set [1] (setting [5]), the inhibition at 1 µM was found to be 23.6 ± 2.5%. The inhibition at 10 µM in data set [1] (setting [6]) came to 97.7 ± 2.2%.
Taken in the same sequence, the figures for `Fc1cccc(F)c1C#Cc1ccc2[nH]ccc2c1` [Compound 5e, 5-((2,6-Difluorophenyl)ethynyl)-1H-indole] were 131 to 133 °C, 52.9 ± 5.9% and 91.5 ± 3.5%.
In turn, `CN(C)c1ccc2cc(C#Cc3c(F)cccc3F)ccc2n1` [Compound 5ee, 6-((2,6-Difluorophenyl)ethynyl)-N,N-dimethylquinolin-2-amine] yielded a melting point of 142 to 144 °C. Besides, in data set [1] (setting [9]), the inhibition at 1 µM came out at 2 ± 11.9% and the inhibition at 10 µM is 38.7 ± 4.3%.
For `Cn1ccc2cc(C#Cc3c(F)cccc3F)ccc21` [Compound 5f, 5-((2,6-Difluorophenyl)ethynyl)-1-methyl-1H-indole], the inhibition at 1 µM is above 75% in data set [1] (setting [7]) and 77.7 ± 13.6% in data set [1] (setting [5]). The inhibition at 0.1 µM in data set [1] (setting [4]) was determined as 3 ± 5.6%. For the same molecule, the inhibition at 10 µM in data set [1] (setting [6]) amounted to 95.2 ± 1%.
Regarding `CN(C)c1ccnc2ccc(C#Cc3c(F)cccc3F)cc12` [Compound 5ff, 6-((2,6-Difluorophenyl)ethynyl)-N,N-dimethylquinolin-4-amine], the melting point is 118 to 120 °C. In addition, in data set [1] (setting [8]), the inhibition at 1 µM is above 75%. Further, in data set [1] (setting [9]), the inhibition at 0.1 µM is 0%, the inhibition at 1 µM came out at 81.3 ± 1.4% and the inhibition at 10 µM was determined as 95.5 ± 2%.
For `Fc1cccc(F)c1C#Cc1cccc2[nH]ncc12` [Compound 5g, 4-((2,6-Difluorophenyl)ethynyl)-1H-indazole], the melting point was 178 to 179 °C. For the same molecule, in data set [1] (setting [9]), the inhibition at 1 µM is 19.8 ± 13.6% and the inhibition at 10 µM stood at 96.2 ± 2%.
Take `Fc1cccc(F)c1C#Cc1nccc2ccccc12` [Compound 5gg, 1-((2,6-Difluorophenyl)ethynyl)isoquinoline]: the melting point lay within 120 to 122 °C. Also, the inhibition at 1 µM in data set [1] (setting [5]) stood at 35.4 ± 15%. In addition, the inhibition at 10 µM in data set [1] (setting [6]) was found to be 96.7 ± 0.2%.
`Fc1cccc(F)c1C#Cc1ccc2[nH]ncc2c1` [Compound 5h, 5-((2,6-Difluorophenyl)ethynyl)-1H-indazole] gave a melting point of 193 to 195 °C. Further, in data set [1] (setting [9]), the inhibition at 1 µM turned out to be 17.6 ± 7.9% and the inhibition at 10 µM is 82.9 ± 9.8%.
In turn, `Fc1cccc(F)c1C#Cc1cncc2ccccc12` [Compound 5hh, 4-((2,6-Difluorophenyl)ethynyl)isoquinoline] came in with a melting point of 102 to 104 °C. The inhibition at 1 µM in data set [1] (setting [5]) amounted to 16.5 ± 2.1%. The inhibition at 10 µM in data set [1] (setting [6]) was determined as 87.9 ± 1%.
As for `Fc1cccc(F)c1C#Cc1ccc2cn[nH]c2c1` [Compound 5i, 6-((2,6-Difluorophenyl)ethynyl)-1H-indazole], the melting point was 192 to 194 °C. In addition, the inhibition at 1 µM in data set [1] (setting [8]) is above 75%. Moreover, in data set [1] (setting [9]), the inhibition at 1 µM came out at 81.5 ± 2.9% and the inhibition at 10 µM amounted to 97 ± 1.1%.
In turn, `Fc1cccc(F)c1C#Cc1cccc2cnccc12` [Compound 5ii, 5-((2,6-Difluorophenyl)ethynyl)isoquinoline] came in with a melting point of 115 to 117 °C. Also, the inhibition at 1 µM in data set [1] (setting [5]) amounted to 64.2 ± 6.1%. For the same molecule, the inhibition at 10 µM in data set [1] (setting [6]) stood at 93.6 ± 0.5%.
As for `Cn1ncc2cc(C#Cc3c(F)cccc3F)ccc21` [Compound 5j, 5-((2,6-difluorophenyl)ethynyl)-1-methyl-1H-indazole], the melting point fell in the range of 107 to 109 °C. In data set [1] (setting [4]), the inhibition at 0.1 µM was found to be 0%. In addition, the inhibition at 1 µM in data set [1] (setting [5]) is 58.4 ± 9.6%. For the same molecule, in data set [1] (setting [6]), the inhibition at 10 µM came out at 94.6 ± 3.5%.
Turning to `Fc1cccc(F)c1C#Cc1ccc2cnccc2c1` [Compound 5jj, 6-((2,6-difluorophenyl)ethynyl)isoquinoline], the melting point fell in the range of 97 to 99 °C. The inhibition at 1 µM in data set [1] (setting [5]) is 11.6 ± 21.3%. Further, the inhibition at 10 µM in data set [1] (setting [6]) was 82.4 ± 10.2%.
With `Fc1cccc(F)c1C#Cc1cnc2[nH]ccc2c1` [Compound 5l, 5-((2,6-Difluorephenyl)ethynyl)-1H-pyrrolo[2,3-b]pyridine], the “inhibition of cell proliferation (%) of colon cancer LS174T cells” value in data set [1] (Table 2, 1 μM) was found to be 17.3 ± 12.0%; in data set [1] (Table 2, 10 μM) it was 77.9 ± 8.9%.
Regarding `Nc1ccc2ncc(C#Cc3c(F)cccc3F)cc2c1` [Compound 5r, 3-((2,6-Ditfluorophenyl)ethynyl)quinolin-6-amine], in data set [1] (Table 2, 10 μM), the “inhibition of cell proliferation (%) of colon cancer LS174T cells” value is listed as 9.2 ± 15.7%.
Regarding `CN(C)c1ccc(C#Cc2c(F)cncc2F)cc1` [Compound 7d, 4-((3,5-Difluoropyridin-4-yl)ethynyl)-N,N-dimethylaniline], the figures for the “effects on LS174T colon cancer cell proliferation (Table 3)” value in data set [1] (30 nM), in data set [1] (100 nM) and in data set [1] (300 nM) were 16.7, 20.4 and 60.6, respectively.

Values taken from US10449186B2, “Phenylethynyl-substituted benzenes and heterocycles for the treatment of cancer” (UNIVERSITY OF KENTUCKY RESEARCH FOUNDATION, priority 2017, dated 2019).
